Laboratory results taken from publication PMC4988470, “Identification of the putative binding pocket of valerenic acid on GABAA receptors using docking studies and site‐directed mutagenesis” (British Journal of Pharmacology, 2015).

Legend:
[1] = target: α1I227Aβ3γ2S GABAA receptor (Rattus norvegicus, UniProt P62813+P63079, I254A); assay: I GABA enhancement by VA, two-microelectrode voltage clamp in Xenopus oocytes; assay type: cell-based
From the text: (§1) […]. […] Concentration‐response curves were generated, and the data were fitted by non‐linear regression analysis using ORIGIN software (OriginLab Corporation, Northampton, MA, USA). Data were fitted to the Hill equation: y=min+max−min*x^n/k^nH+x^nH k corresponds to the EC50 value; x‐values are logs of concentration, and n H is the Hill coefficient. Each data point represents the mean ± SEM from ≥3 oocytes and two oocyte batches.
(§2) Follicle membranes covering oocytes were enzymatically digested with 2 mg·mL^−1 collagenase (type 1A). Mutations β3T262A, β3T262S, β3N265S, β3T266A, β3R269A, β3M286A, β3M286W and β3F289S in the β3‐subunit and α1I227A, α1L231A, α1M235A, α1M235W and α1L268A in the α1 subunit were introduced by site‐directed mutagenesis using the QuikChange mutagenesis kit (Agilent Technologies, Vienna, Austria). The coding regions of plasmids were sequenced before experimental use. After cDNA linearization, capped cRNA transcripts were produced using the mMESSAGE mMACHINE® T7 transcription kit (Life Technologies). Capped transcripts were polyadenylated using yeast poly(A)polymerase, diluted in nuclease‐free water and stored before injection at −80°C.
(§3) One day after isolation, the oocytes were injected with about 10–50 nL of nuclease‐free water containing the different rat cRNAs (100–2000 ng·μL^−1 per subunit). For expression of wild‐type α1β3γ2S and mutant receptors, cRNAs were mixed in a ratio of 1:1:10 (Boileau et al., 2002). Electrophysiological experiments were performed using the two‐microelectrode voltage clamp technique at a holding potential of −70 mV making use of a TURBO TEC 01C amplifier (NPI Electronic, Tamm, Germany) and an Axon Digidata 1322A interface (Molecular Devices, Sunnyvale, CA, USA). Data acquisition was carried out using PCLAMP v.9.2 (Molecular Devices, Sunnyvale, CA). The bath solution contained 90 mM NaCl, 1 mM KCl, 1 mM MgCl2, 1 mM CaCl2 and 5 mM HEPES (adjusted to pH 7.4 using 1 M NaOH). Microelectrodes were filled with 2 M KCl and had resistances between 1 and 3 MΩ (Khom et al., 2006).
(§4) Drug or control solutions were applied by means of a TECAN Miniprep 60 permitting automation of the experiments. […] […]. Oocytes with maximal current amplitudes >5 μA were discarded to exclude voltage‐clamp errors (Khom et al., 2006).

[2] = target: α1L231Aβ3γ2S GABAA receptor (Rattus norvegicus, UniProt P62813+P63079, L258A); assay: as above; assay type: cell-based
From the text: as §1, §2, §3, §4

[3] = target: α1L268Aβ3γ2S GABAA receptor (Rattus norvegicus, UniProt P62813+P63079, L295A); assay: as above; assay type: cell-based
From the text: as §1, §2, §3, §4

[4] = target: α1M235Aβ3γ2S GABAA receptor (Rattus norvegicus, UniProt P62813+P63079, M262A); assay: as above; assay type: cell-based
Sequence of α1M235Aβ3γ2S GABAA receptor (P62813 28-455 M262A): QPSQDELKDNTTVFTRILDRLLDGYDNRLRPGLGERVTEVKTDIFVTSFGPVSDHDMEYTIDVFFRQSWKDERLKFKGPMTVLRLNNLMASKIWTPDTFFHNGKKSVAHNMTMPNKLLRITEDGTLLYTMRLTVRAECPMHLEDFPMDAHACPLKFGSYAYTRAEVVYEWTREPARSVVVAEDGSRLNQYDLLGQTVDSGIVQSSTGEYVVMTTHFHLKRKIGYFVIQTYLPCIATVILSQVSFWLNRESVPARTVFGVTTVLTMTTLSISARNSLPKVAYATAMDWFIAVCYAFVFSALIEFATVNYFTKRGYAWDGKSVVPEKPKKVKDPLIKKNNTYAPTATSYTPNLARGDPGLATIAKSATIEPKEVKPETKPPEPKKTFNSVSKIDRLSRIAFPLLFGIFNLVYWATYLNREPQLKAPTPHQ
Sequence of α1M235Aβ3γ2S GABAA receptor (P63079 26-473): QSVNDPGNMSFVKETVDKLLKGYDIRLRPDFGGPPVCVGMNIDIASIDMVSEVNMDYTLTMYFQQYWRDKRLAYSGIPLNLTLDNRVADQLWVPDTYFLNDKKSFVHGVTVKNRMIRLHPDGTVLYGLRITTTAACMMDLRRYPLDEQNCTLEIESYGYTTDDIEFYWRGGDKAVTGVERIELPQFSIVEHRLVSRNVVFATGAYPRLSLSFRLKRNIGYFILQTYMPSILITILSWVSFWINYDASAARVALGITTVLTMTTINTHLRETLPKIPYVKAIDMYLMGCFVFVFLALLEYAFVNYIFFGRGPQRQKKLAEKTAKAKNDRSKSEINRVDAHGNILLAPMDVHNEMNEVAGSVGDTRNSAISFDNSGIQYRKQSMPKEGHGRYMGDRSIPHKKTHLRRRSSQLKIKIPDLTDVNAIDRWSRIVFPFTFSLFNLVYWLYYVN
Sequence of α1M235Aβ3γ2S GABAA receptor (P18508 39-466 partner): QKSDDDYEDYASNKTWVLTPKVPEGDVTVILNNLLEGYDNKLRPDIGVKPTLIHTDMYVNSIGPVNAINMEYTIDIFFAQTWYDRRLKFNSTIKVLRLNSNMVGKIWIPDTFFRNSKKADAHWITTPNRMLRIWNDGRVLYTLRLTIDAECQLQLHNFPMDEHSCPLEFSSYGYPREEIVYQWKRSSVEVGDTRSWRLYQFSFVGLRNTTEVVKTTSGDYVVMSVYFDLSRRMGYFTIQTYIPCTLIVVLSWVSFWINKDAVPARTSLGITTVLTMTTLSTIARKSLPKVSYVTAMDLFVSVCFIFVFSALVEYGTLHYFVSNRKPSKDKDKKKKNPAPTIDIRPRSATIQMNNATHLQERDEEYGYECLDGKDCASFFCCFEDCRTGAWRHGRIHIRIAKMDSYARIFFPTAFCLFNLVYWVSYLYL
From the text: as §1, §2, §3, §4

[5] = target: α1M235Wβ3γ2S GABAA receptor (Rattus norvegicus, UniProt P62813+P63079, M262W); assay: as above; assay type: cell-based
From the text: as §1, §2, §3, §4

[6] = target: α1β3F289Sγ2S GABAA receptor (Rattus norvegicus, UniProt P62813+P63079, F314S); assay: as above; assay type: cell-based
Sequence of α1β3F289Sγ2S GABAA receptor (P62813 28-455): as the sequence (P62813 28-455 M262A) above, with A235M counted along it
Sequence of α1β3F289Sγ2S GABAA receptor (P63079 26-473 F314S): as the sequence (P63079 26-473) above, with F289S counted along it
Sequence of α1β3F289Sγ2S GABAA receptor (P18508 39-466 partner): as the sequence (P18508 39-466 partner) above
From the text: as §1, §2, §3, §4

[7] = target: α1β3M286Aγ2S GABAA receptor (Rattus norvegicus, UniProt P62813+P63079, M311A); assay: as above; assay type: cell-based
Sequence of α1β3M286Aγ2S GABAA receptor (P62813 28-455): as the sequence (P62813 28-455 M262A) above, with A235M counted along it
Sequence of α1β3M286Aγ2S GABAA receptor (P63079 26-473 M311A): as the sequence (P63079 26-473) above, with M286A counted along it
Sequence of α1β3M286Aγ2S GABAA receptor (P18508 39-466 partner): as the sequence (P18508 39-466 partner) above
From the text: as §1, §2, §3, §4

[8] = target: α1β3M286Wγ2S GABAA receptor (Rattus norvegicus, UniProt P62813+P63079, M311W); assay: as above; assay type: cell-based
From the text: as §1, §2, §3, §4

[9] = target: α1β3N265Sγ2S GABAA receptor (Rattus norvegicus, UniProt P62813+P63079, N290S); assay: as above; assay type: cell-based
From the text: as §1, §2, §3, §4

[10] = target: α1β3R269Aγ2S GABAA receptor (Rattus norvegicus, UniProt P62813+P63079, R294A); assay: as above; assay type: cell-based
From the text: as §1, §2, §3, §4

[11] = target: α1β3T262Aγ2S GABAA receptor (Rattus norvegicus, UniProt P62813+P63079, T287A); assay: as above; assay type: cell-based
From the text: as §1, §2, §3, §4

[12] = target: α1β3T262Sγ2S GABAA receptor (Rattus norvegicus, UniProt P62813+P63079, T287S); assay: as above; assay type: cell-based
From the text: as §1, §2, §3, §4

[13] = target: α1β3T266Aγ2S GABAA receptor (Rattus norvegicus, UniProt P62813+P63079, T291A); assay: as above; assay type: cell-based
From the text: as §1, §2, §3, §4

[14] = target: α1β3γ2S GABAA receptor (Rattus norvegicus, UniProt P62813+P63079); assay: as above; assay type: cell-based
From the text: as §1, §2, §3, §4

[15] = system: GABAA receptors; set-up: method as in Khom et al., 2007; conditions: high concentrations; ref Khom et al., 2007; cited from earlier work
[16] = system: β1‐containing channels; set-up: method as in Khom et al., 2007; conditions: ref Khom et al., 2007; cited from earlier work
[17] = read-out: Emax of I GABA enhancement

SMILES: CC1=C2[C@H](/C=C(\C)C(=O)O)CC[C@@H](C)[C@H]2CC1 [VA, valerenic acid]
- EC50 [1]: 40.8 ± 8.4 µM
- Emax [1, 17]: 776 ± 60%
- n H (Hill coefficient, I GABA enhancement) ([1]; α1I227Aβ3γ2S, GABA EC3–7, mean ± SEM): 1.13 ± 0.08
- EC50 [2]: 18.8 ± 4.4 µM
- Emax [2, 17]: 703 ± 82%
- n H (Hill coefficient, I GABA enhancement) ([2]; α1L231Aβ3γ2S, GABA EC3–7, mean ± SEM): 1.37 ± 0.18
- EC50 [3]: 19.9 ± 5.6 µM
- Emax [3, 17]: 582 ± 80%
- n H (Hill coefficient, I GABA enhancement) ([3]; α1L268Aβ3γ2S, GABA EC3–7, mean ± SEM): 1.06 ± 0.13
- EC50 [4]: 21.1 ± 2.8 µM
- Emax [4, 17]: 546 ± 28%
- n H (Hill coefficient, I GABA enhancement) ([4]; α1M235Aβ3γ2S, GABA EC3–7, mean ± SEM): 1.19 ± 0.08
- EC50 [5]: 24.3 ± 7.7 µM
- Emax [5, 17]: 193 ± 16%
- n H (Hill coefficient, I GABA enhancement) ([5]; α1M235Wβ3γ2S, GABA EC3–7, mean ± SEM): 1.37 ± 0.34
- EC50 [6]: 181 ± 21.6 µM
- Emax [6, 17]: 222 ± 12%
- rightward shift of VA's potency versus wild type ([6]; α1β3F289Sγ2S versus α1β3γ2S): ninefold
- n H (Hill coefficient, I GABA enhancement) ([6]; α1β3F289Sγ2S, GABA EC3–7, mean ± SEM): 1.20 ± 0.07
- EC50 [7]: 60.1 ± 18.5 µM
- Emax [7, 17]: 283 ± 52%
- n H (Hill coefficient, I GABA enhancement) ([7]; α1β3M286Aγ2S, GABA EC3–7, mean ± SEM): 1.47 ± 0.21
- Emax [8, 17]: 67 ± 35%
- modulatory effects on I GABA (in words) ([8]; α1β3M286Wγ2S, GABA EC3–7): did not display any significant modulatory effects
- EC50 [9]: 143 ± 67.5 µM
- Emax [9, 17]: 134 ± 32%
- reduction of efficacy of IGABA enhancement versus wild type ([9]; α1β3N265Sγ2S versus α1β3γ2S): approximately fivefold reduced
- reduction of potency of IGABA enhancement versus wild type ([9]; α1β3N265Sγ2S versus α1β3γ2S): sevenfold reduction
- n H (Hill coefficient, I GABA enhancement) ([9]; α1β3N265Sγ2S, GABA EC3–7, mean ± SEM): 1.33 ± 0.39
- EC50 [10]: 84.1 ± 14.7 µM
- Emax [10, 17]: 259 ± 22%
- n H (Hill coefficient, I GABA enhancement) ([10]; α1β3R269Aγ2S, GABA EC3–7, mean ± SEM): 1.63 ± 0.19
- reduction of efficacy of I GABA enhancement versus wild type ([10]; β3R269 mutated to alanine versus wild type): approximately 50%
- EC50 [11]: 2.5 ± 0.8 µM
- Emax [11, 17]: 573 ± 96%
- n H (Hill coefficient, I GABA enhancement) ([11]; α1β3T262Aγ2S, GABA EC3–7, mean ± SEM): 1.00 ± 0.16
- EC50 [12]: 3.4 ± 0.7 µM
- Emax [12, 17]: 578 ± 42%
- n H (Hill coefficient, I GABA enhancement) ([12]; α1β3T262Sγ2S, GABA EC3–7, mean ± SEM): 0.85 ± 0.15
- EC50 [13]: 7.5 ± 1.5 µM
- Emax [13, 17]: 666 ± 55%
- n H (Hill coefficient, I GABA enhancement) ([13]; α1β3T266Aγ2S, GABA EC3–7, mean ± SEM): 1.26 ± 0.1
- EC50 [14]: 20.2 ± 5.2 µM
- Emax [14, 17]: 632 ± 88%
- n H (Hill coefficient, I GABA enhancement) ([14]; α1β3γ2S, GABA EC3–7, mean ± SEM): 1.50 ± 0.29
- concentration at which VA directly activates GABAA receptors [15]: ≥ 30 µM
- concentration at which VA inhibits GABAA receptors [15]: ≥ 100 µM
- effects on β1‐containing channels [16]: negligible effects
